Measurements taken from US10919938B2, “Modified cyclopentapeptides and uses thereof” (TECHNISCHE UNIVERSITÄT MÜNCHEN, priority 2014, dated 2021).
Read-outs that look alike come from different tables or passages of the source. Non-standard residues stand in square brackets, D forms with d. Residues, ends and D or L forms follow the SMILES beside them. Groups on a side chain read outwards from the residue. *: point of attachment. DOTA(Ga) = O=C1CN2CCN3CCN(CC(=O)*)CCN(CC2)CC(=O)[O][Ga]([O]1)[O]C(=O)C3; DOTA = O=C(O)CN1CCN(CC(=O)O)CCN(CC(=O)*)CCN(CC(=O)O)CC1; 2Nal = N[C@@H](Cc1ccc2ccccc2c1)C(=O)O; dNMeOrn = CN[C@H](CCCN)C(=O)O; 4Amb = NCc1ccc(C(=O)O)cc1; 4Abz = Nc1ccc(C(=O)O)cc1; Ahx = NCCCCCC(=O)O

Tests used:
hCXCR4 [1] = target: T1, hCXCR4 (Homo sapiens, UniProt P61073); conditions: stated in text as had been shown; cited from earlier work
T1 construct: endogenous in cells; host or cells: Jurkat human T lymphocyte cells

hCXCR4 [2] = target: T1, hCXCR4; assay: Determination of IC50: competition against [^125I]FC-131 on Jurkat cells; assay type: binding; conditions: hCXCR4-expressing Jurkat T-cell leukemia cells, [^125I]FC-131 as radioligand, mean ± SD
Protocol: (§1) After washing twice with 400 piL of cold PBS, the amount of bound radioligand was quantified using a γ-counter. Nonspecific binding was determined in the presence of 1 μM FC131. IC50 values were calculated using the PRISM 4 program (Graph Pad Software, San Diego, Calif.).

hCXCR4 [3] = target: T1, hCXCR4; assay: Determination of inverse IC50: radioiodinated peptides against standard competitor FC-131 on Jurkat cells; assay type: binding; conditions: combining IC50 and inverse IC50 assays
Protocol: as §1
Experiments were performed in analogy the determination of IC50.

[4] = tested on: Daudi (high CXCR4) and SU-DHL-8 (low CXCR4) xenografts; assay: Dual tracer biodistribution study in tumor bearing SCID mice; conditions: i.v., 1 h p.i.
Protocol: (§6) For the induction of tumor growth, female CB-17 SCID mice (6-8 weeks, Charles River, Sulzfeld, Germany) were injected subcutaneously with app. 5×10^6 Daudi (right shoulder) or SU-DHL-8 (left shoulder) cells suspended in 100 μL of a 1:1 (v/v) mixture of serum free culture medium and Matrigel (BD Biosciences, Heidelberg, Germany). Within 10-21 days, solid palpable tumors had grown (100-800 mg), and the animals were used for the experiments.
(§7) The animals were sacrificed 90 min post injection (p.i.), and the organs of interest were dissected. The radioactivity was measured in weighted tissue samples using a γ-counter. Data are expressed in % ID/g tissue (mean±SD).

[5] = Determination of lipophilicity (octanol/PBS partition); assay type: physicochemical; conditions: octanol / PBS pH 7.4, radiolabeled peptide
Protocol: To a solution of app. 2 kBq of radiolabeled peptide in 500 tiL of PBS (pH 7.4), 500 μL of octanol were added (n=6). Vials were vortexed vigorously for 3 min. To achieve quantitative phase separation, the vials were centrifuged at 14,000×g for 6 min in a Biofuge 15 (Heraeus Sepatech, Osterode, Germany). The activity concentrations in 100 μL-samples of both the aqueous and the organic phase were measured in a γ-counter. Both the partition coefficient Pow, which is defined as the molar concentration ratio of a single species A between octanol and an aqueous phase at equilibrium, and log Pow, which is an important parameter used to characterize lipophilicity of a compound, were calculated.

HT-29 cells [6] = assay: Dual tracer internalization study (adherent cells), HT-29; assay type: cell-based, human; conditions: HT-29, 30 min, 37° C., corrected for non-specific binding (100 μM AMD3100)
Protocol: (§2) 2·10^5 cells per well. On the day of the experiment, the culture medium was removed and the cells were washed once with 250 μL of unsupplemented medium before being left to equilibrate in 200 μL of assay medium at 37° C. for a minimum of 15 min before the experiment. […] (n=3 wells, respectively, per time point). Incubation was terminated by placing the plate on an ice pack for app. 1 min and by subsequent removal of the incubation medium. Cells were thoroughly rinsed with 250 μL of HBSS. After washing twice with 250 μL of ice cold acid wash buffer (0.02 M NaOAc buffered with AcOH to pH=5), cells were lysed with 250 μL of 1 N NaOH. The lysate was transferred to vials and combined with 250 μL of HBSS used for rinsing the wells. Quantification of the amount of free, acid-releasable and internalized activity was performed as described.

Daudi cells [7] = assay: Dual tracer internalization study (suspension cells), Daudi; assay type: cell-based, human; conditions: 30 min, 37° C., corrected for non-specific binding (100 μM AMD3100)
Protocol: (§3) The total sample volume was 250 μL. After incubation, the tubes were centrifuged (3 min, 1300 rcf, Megafuge 1.0, Heraeus Thermo Scientific), the supernatant was carefully removed and combined with 200 μL of ice cold HBSS used for washing the cells (free radioligand). To remove surface bound (acid releasable) radioactivity, cells were then washed twice with ice cold acid wash buffer (0.02 M NaOAc in saline buffered with AcOH to pH=5). Finally, the amount of internalized activity in the cell pellet as well as the fraction of free and acid releasable ^68Ga-activity were determined using a γ-counter.

SH-SY5Y cells [8] = assay: Dual tracer externalization study (adherent cells), SH-SY5Y; assay type: cell-based, human
Protocol: (§4) In the experiment allowing ligand recycling 250 µL of assay medium were added to the wells (n=3). […] Subsequently, cells were incubated at 37° C. for 5, 15, 30 and 60 min, respectively. The supernatant was removed and combined with 250 μL of HBSS used for rinsing the cells. This fraction represents the amount of externalized ligand at the respective time point. The following lysis of the cells was performed as desribed for the internalization experiment.

[9] = tested on: Daudi (high CXCR4) and SU-DHL-8 (low CXCR4) xenografts; conditions: mouse, in vivo, iv
Protocol: as §6, §7

Daudi cells [10] = assay: Dual tracer externalization study (suspension cells), Daudi; assay type: cell-based, human
Protocol: (§5) To ensure receptor integrity, no acid wash was performed after this initial internalization incubation. Then, to determine the extent of ligand recycling, two different experiments were performed. In the experiment allowing ligand recycling, 250 μL of assay medium were added to each well. […] Experiments were carried out in triplicate for both experimental conditions. Subsequently, the cells were incubated for 5, 15, 30 and 60 minutes at 37° C. Then, the tubes were centrifuged, the supernatant was removed and combined with 250 μL of HBSS used for washing the cells. This fraction represents the amount of externalized ligand. The following steps, i.e. acid wash and quantification of the remaining cellular activity, were performed as described for the internalization experiment.

DU-145 cells = assay: Dual tracer internalization study (adherent cells), DU-145; assay type: cell-based, human; conditions: DU-145, 30 min, 37° C., corrected for non-specific binding (100 μM AMD3100)
Protocol: as §2

[11] = tested on: CXCR4 expressing cell lines; assay: Dual tracer internalization studies in various human cancer cell lines; assay type: cell-based; conditions: in all cell lines
Protocol: as §3
as §2, with “The lysate was transferred to vials and combined with 250 μL of HBSS used for rinsing the wells.” left out

MCF-7 cells [12] = assay: Dual tracer externalization study (adherent cells), MCF-7; assay type: cell-based, human
Protocol: as §4

SH-SY5Y cells [13] = assay: Dual tracer internalization study (adherent cells), SH-SY5Y; assay type: cell-based, human; conditions: 30 min, 37° C., corrected for non-specific binding (100 μM AMD3100)
Protocol: as §2

Jurkat cells [14] = assay: Dual tracer internalization study (suspension cells), Jurkat; assay type: cell-based, human
Protocol: as §3

SUDHL-8 cells = assay: Dual tracer internalization study (suspension cells), SUDHL-8; assay type: cell-based, human; conditions: SUDHL-8, 30 min, 37° C., corrected for non-specific binding (100 μM AMD3100)
Protocol: as §3

MCF-7 cells [15] = assay: Dual tracer internalization study (adherent cells), MCF-7; assay type: cell-based, human; conditions: MCF-7, 30 min, 37° C., corrected for non-specific binding (100 μM AMD3100)
Protocol: as §2

Jurkat cells [16] = assay: Dual tracer externalization study (suspension cells), Jurkat; assay type: cell-based, human
Protocol: as §5

HT-29 cells [17] = assay: Dual tracer externalization study (adherent cells), HT-29; assay type: cell-based, human
Protocol: as §4

[18] = recycling allowed (medium only)
[19] = recycling inhibited (100 μM AMD3100)

T1 sequence (P61073 whole entry): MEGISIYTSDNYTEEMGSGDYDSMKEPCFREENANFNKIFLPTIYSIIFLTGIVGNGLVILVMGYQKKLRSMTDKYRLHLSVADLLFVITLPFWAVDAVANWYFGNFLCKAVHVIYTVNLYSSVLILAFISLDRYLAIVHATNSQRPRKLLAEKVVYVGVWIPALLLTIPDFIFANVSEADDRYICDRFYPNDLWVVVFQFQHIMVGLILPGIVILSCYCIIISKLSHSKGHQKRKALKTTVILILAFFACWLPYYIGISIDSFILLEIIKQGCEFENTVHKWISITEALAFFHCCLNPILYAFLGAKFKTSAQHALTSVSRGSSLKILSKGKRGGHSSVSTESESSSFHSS

## 3-iodo-D-Tyr^1-FC-131
hCXCR4 [1]
  IC50: 1.3 nM

## CN1C(=O)[C@@H](Cc2ccc(O)cc2)NC(=O)CNC(=O)[C@H](Cc2ccc3ccccc3c2)NC(=O)[C@H](CCCNC(=N)N)NC(=O)[C@H]1CCCNC(=O)c1ccc(NC(=O)CCCCCNC(=O)CN2CCN3CCN4CCN(CC2)CC(=O)[O][Ga]([O]C(=O)C3)[O]C(=O)C4)cc1 [yorn′(ABS, Ahx, DOTA, Ga)RNalG] (cyclo([2Nal]G[dY][dNMeOrn]([4Abz-Ahx-DOTA(Ga)])R))
hCXCR4 [2]
  IC50: 30.3 ± 6.52 nM

## CN1C(=O)[C@@H](Cc2ccc(O)cc2)NC(=O)CNC(=O)[C@H](Cc2ccc3ccccc3c2)NC(=O)[C@H](CCCNC(=N)N)NC(=O)[C@H]1CCCNC(=O)c1ccc(CNC(=O)CN2CCN3CCN4CCN(CC2)CC(=O)[O][Ga]([O]C(=O)C3)[O]C(=O)C4)cc1 [yorn′(AMBS, DOTA, Ga)RNalG] (cyclo([2Nal]G[dY][dNMeOrn]([4Amb-DOTA(Ga)])R))
hCXCR4 [3]
  increase in CXCR4 affinity by (radio)iodination, factor: ~20

## CN1C(=O)[C@@H](Cc2ccc(O)cc2)NC(=O)CNC(=O)[C@H](Cc2ccc3ccccc3c2)NC(=O)[C@H](CCCNC(=N)N)NC(=O)[C@H]1CCCNC(=O)c1ccc(CNC(=O)CN2CCN(CC(=O)O)CCN(CC(=O)O)CCN(CC(=O)O)CC2)cc1 [yorn′(AMBS, DOTA, ^68Ga)RNalG, metal not drawn] (cyclo([dY][dNMeOrn]([4Amb-DOTA])R[2Nal]G))
[4]
  tumor-to-non-tumor ratios (in words): comparable

## [^125I]yorn′(ABS, Avs, DOTA, Lu)RNalG
[5]
  Log PO/PBS: −1.23

## [^125I]yorn′(ABS, DOTA, In)RNalG
[5]
  Log PO/PBS: −1.37

## [^125I]yorn′(ABS, G, DOTA, Lu)RNalG
[5]
  Log PO/PBS: −1.28

## [^125I]yorn′(AMBS, DOTA, Ga)RNalG
HT-29 cells [6]
  Internalization efficiency (internalized activity in % of total cellular activity): 77.9 ± 4.6 % of total cellular activity
Daudi cells [7]
  Internalization efficiency (internalized activity in % of total cellular activity): 51.3 ± 4.4 % of total cellular activity
SH-SY5Y cells [8]; [18]
  Residual internalized activity after a 60 min externalization incubation: 11.2 ± 2.5 % of total cellular activity at t = 0
SH-SY5Y cells [8]; [19]
  Residual internalized activity after a 60 min externalization incubation: 7.8 ± 1.0 % of total cellular activity at t = 0
[9]
  tumor-to-non-tumor ratios (in words): comparable
Daudi cells [10]; [18]
  Residual internalized activity after a 60 min externalization incubation: 14.5 ± 2.0 % of total cellular activity at t = 0
Daudi cells [10]; [19]
  Residual internalized activity after a 60 min externalization incubation: 7.0 ± 0.5 % of total cellular activity at t = 0
DU-145 cells
  Internalization efficiency (internalized activity in % of total cellular activity): 69.1 ± 18.2 % of total cellular activity
[11]
  internalization compared to yorn′(AMBS, DOTA, ^68Ga)RNalG (in words): significantly higher internalization
MCF-7 cells [12]; MCF-7, recycling allowed (medium only)
  Residual internalized activity after a 60 min externalization incubation: 10.4 ± 1.4 % of total cellular activity at t = 0
MCF-7 cells [12]; MCF-7, recycling inhibited (100 μM AMD3100)
  Residual internalized activity after a 60 min externalization incubation: 8.7 ± 1.1 % of total cellular activity at t = 0
SH-SY5Y cells [13]
  Internalization efficiency (internalized activity in % of total cellular activity): 57.3 ± 7.1 % of total cellular activity
[5]
  Log PO/PBS: −1.56
Jurkat cells [14]; Jurkat cells, comparable for the other cell lines
  fraction of membrane bound activity versus internalized activity (in words): considerably higher
Jurkat cells [14]; Jurkat, 30 min, 37° C., corrected for non-specific binding (100 μM AMD3100)
  Internalization efficiency (internalized activity in % of total cellular activity): 27.4 ± 2.0 % of total cellular activity
SUDHL-8 cells
  Internalization efficiency (internalized activity in % of total cellular activity): 29.9 ± 5.2 % of total cellular activity
MCF-7 cells [15]
  Internalization efficiency (internalized activity in % of total cellular activity): 37.6 ± 3.7 % of total cellular activity
Jurkat cells [16]; [18]
  Residual internalized activity after a 60 min externalization incubation: 8.0 ± 2.0 % of total cellular activity at t = 0
Jurkat cells [16]; [19]
  Residual internalized activity after a 60 min externalization incubation: 3.7 ± 1.3 % of total cellular activity at t = 0
HT-29 cells [17]; HT-29, recycling allowed (medium only)
  Residual internalized activity after a 60 min externalization incubation: 13.5 ± 2.6 % of total cellular activity at t = 0
HT-29 cells [17]; HT-29, recycling inhibited (100 μM AMD3100)
  Residual internalized activity after a 60 min externalization incubation: 10.5 ± 2.5 % of total cellular activity at t = 0
HT-29 cells [17]; HT-29 cells, nearly identical results for the other cell lines
  ligand recycling (in words): almost no ligand recycling

## [^125I]yorn′(AMBS, DOTA, In)RNalG
[5]
  Log PO/PBS: −1.39

## [^125I]yorn′(AMBS, DOTA, Lu)RNalG
[5]
  Log PO/PBS: −1.38

## cyclo(-D-Tyr^1[^125I]-Arg^2-Arg^3-Na1^4-Gly^5 [[^125I]FC-131, reference compound]
[5]
  Log PO/PBS: −0.35

## yorn′(ABS, Ahx, DOTA, In)RNalG
hCXCR4 [2]
  IC50: 26.5 ± 22.6 nM

## yorn′(ABS, G, DOTA, Ga)RNalG
hCXCR4 [2]
  IC50: 16.7 ± 3.28 nM

## yorn′(AMBS, DOTA, In)RNalG
hCXCR4 [2]
  IC50: 44.9 ± 10.4 nM

## yorn′(DOTA, In)RNalG
hCXCR4 [2]
  IC50: > 1000 nM
